46 compounds from US4514573A, “Isoprenylamine derivatives” (priority 1981, dated 1985) can be followed below.

A value given as a limit tells only on which side of the number the result lay.

One data set deals with vaccinia virus. In words: animal or person. In kind it is in vivo, ICR female mice. The following applies: Orthopoxvirus vaccinia, in Mus musculus, ip, 192 h, read-out: Prevention from vaccinia infection (Pock inhibition rate %).
The test system of data set [1] is Human interferon; normal diploid cells (fibroblast). As to the kind of experiment: Human interferon-inducing activity (in vitro), 3H-uridine-uptake inhibition. Conditions: 25 n molar suspension. Type of data set: cell-based. As to the method:
Interferon was induced according to the method of Edward A. Havell et al. by treating normal diploid cells (fibroblast) originated from human being with each test compound in the form of ethanol solution diluted with PBS (-) (25 n molar suspension). Using the radioisotope microassay method of H. Ishitsuka et al., interferon was measured in terms of 3H-uridine-uptakeinhibition rate.

Data set [2] in a line: Toxicity (50% lethal dose, intravenous). Conditions: mouse, in vivo, ddY male mice 20-25 g, read-out: LD50 (Intravenously administered mg/kg). The source says:
Using ddY male mice weighing 20-25 g, 50% lethal dose of each test compound when intravenously administered was obtained, the results of which are shown in Table 5.

Take `COc1ccc(CNC/C=C(\C)CCC=C(C)C)cc1OC`: in the data set on vaccinia virus, the inhibition in vivo at 50 mg/kg stood at 10%.

As to `COc1cc(CNCC=C(C)CCC=C(C)CCC=C(C)CCC=C(C)CCC=C(C)CCC=C(C)CCC=C(C)CCC=C(C)CCC=C(C)C)cc(OC)c1OC`, the “Human interferon 3H uridine-uptake inhibition rate %” value in data set [1] is 21.5%.

On to `CC(C)=CCCC(C)=CCCC(C)=CCCC(C)=CCCC(C)=CCCC(C)=CCCC(C)=CCCC(C)=CCCC(C)=CCCC(C)=CCNc1ccc(C(=O)O)cc1` [drawing 26], for which, in the data set with vaccinia virus, the inhibition in vivo at 50 mg/kg came out at 15%.

Consider `CC(C)=CCCC(C)=CCCC(C)=CCCC(C)=CCCC(C)=CCCC(C)=CCCC(C)=CCCC(C)=CCCC(C)=CCCC(C)=CCNc1ccc(C(=O)O)c(O)c1` [drawing 27], for which the inhibition in vivo at 50 mg/kg with vaccinia virus came out at 42.9%.

Take `CC(C)=CCCC(C)=CCCC(C)=CCCC(C)=CCCC(C)=CCCC(C)=CCCC(C)=CCCC(C)=CCCC(C)=CCCC(C)=CCNCCCc1ccccc1` [drawing 28]: the inhibition in vivo at 50 mg/kg in the data set on vaccinia virus is 68.1%.

As for `CC(C)=CCCC(C)=CCCC(C)=CCCC(C)=CCCC(C)=CCCC(C)=CCCC(C)=CCCC(C)=CCCC(C)=CCCC(C)=CCNCc1ccc([N+](=O)[O-])cc1` [drawing 29], the inhibition in vivo at 50 mg/kg in the data set with vaccinia virus turned out to be 47.7%.

On to `CC(C)=CCCC(C)=CCCC(C)=CCCC(C)=CCCC(C)=CCCC(C)=CCCC(C)=CCCC(C)=CCCC(C)=CCCC(C)=CCNCc1cccc2ccccc12` [drawing 30], for which the inhibition in vivo at 50 mg/kg with vaccinia virus amounted to 21.6%.

In the case of `CC(C)=CCCC(C)=CCCC(C)=CCCC(C)=CCCC(C)=CCCC(C)=CCCC(C)=CCCC(C)=CCCC(C)=CCCC(C)=CCNCc1ccc(C)cc1` [drawing 31], in the data set on vaccinia virus, the inhibition in vivo at 50 mg/kg was found to be 44.8%.

For the compound `CC(C)=CCCC(C)=CCCC(C)=CCCC(C)=CCCC(C)=CCCC(C)=CCCC(C)=CCCC(C)=CCCC(C)=CCCC(C)=CCNCc1ccc(Cl)cc1` [drawing 32], the inhibition in vivo at 50 mg/kg in the data set with vaccinia virus is 34%.

As to `COc1ccc(CNCC=C(C)CCC=C(C)CCC=C(C)CCC=C(C)CCC=C(C)CCC=C(C)CCC=C(C)CCC=C(C)CCC=C(C)CCC=C(C)C)cc1OC` [drawing 33], the inhibition in vivo at 50 mg/kg in the data set with vaccinia virus was 35.4%.

`CC(C)=CCCC(C)=CCCC(C)=CCCC(C)=CCCC(C)=CCCC(C)=CCCC(C)=CCCC(C)=CCCC(C)=CCCC(C)=CCNC(c1ccccc1)c1ccccc1` [drawing 34]: the inhibition in vivo at 50 mg/kg in the data set with vaccinia virus worked out at 14.8%.

For `CC(C)=CCCC(C)=CCCC(C)=CCCC(C)=CCCC(C)=CCCC(C)=CCCC(C)=CCCC(C)=CCCC(C)=CCCC(C)=CCNCCc1ccc(N)cc1` [drawing 35], the inhibition in vivo at 50 mg/kg in the data set with vaccinia virus amounted to 64.4%.

For `CC(C)=CCCC(C)=CCCC(C)=CCCC(C)=CCCC(C)=CCCC(C)=CCCC(C)=CCCC(C)=CCCC(C)=CCCC(C)=CCNCCCCc1ccccc1` [drawing 36], the inhibition in vivo at 50 mg/kg in the data set on vaccinia virus was 40.3%.

As to `COc1ccc(CCNCC=C(C)CCC=C(C)CCC=C(C)CCC=C(C)CCC=C(C)CCC=C(C)CCC=C(C)CCC=C(C)CCC=C(C)CCC=C(C)C)cc1OC` [drawing 37], the inhibition in vivo at 50 mg/kg in the data set with vaccinia virus came out at 68.1%.

Regarding `COc1cc(CNCC=C(C)CCC=C(C)CCC=C(C)CCC=C(C)CCC=C(C)CCC=C(C)CCC=C(C)CCC=C(C)CCC=C(C)CCC=C(C)C)ccc1O` [drawing 38], the inhibition in vivo at 50 mg/kg in the data set on vaccinia virus was 67.1%.

As to `COc1ccc(CNCC=C(C)CCC=C(C)CCC=C(C)CCC=C(C)CCC=C(C)CCC=C(C)CCC=C(C)CCC=C(C)CCC=C(C)CCC=C(C)C)cc1` [drawing 39], the inhibition in vivo at 50 mg/kg in the data set on vaccinia virus is 58.8%.

As for `COc1ccc(CNCC=C(C)CCC=C(C)CCC=C(C)CCC=C(C)CCC=C(C)CCC=C(C)CCC=C(C)CCC=C(C)CCC=C(C)C)cc1OC` [drawing 40], the inhibition in vivo at 50 mg/kg in the data set on vaccinia virus is 54.1%.

As for `CC(C)=CCCC(C)=CCCC(C)=CCCC(C)=CCCC(C)=CCCC(C)=CCCC(C)=CCCC(C)=CCCC(C)=CCCC(C)=CCNCc1cccc(CN)c1` [drawing 41], the inhibition in vivo at 50 mg/kg with vaccinia virus is 91.4%.

In the case of `COc1cccc(CNCC=C(C)CCC=C(C)CCC=C(C)CCC=C(C)CCC=C(C)CCC=C(C)CCC=C(C)CCC=C(C)CCC=C(C)CCC=C(C)C)c1OC` [drawing 42], the inhibition in vivo at 50 mg/kg in the data set on vaccinia virus came to 32.5%.

With `CC(C)=CCCC(C)=CCCC(C)=CCCC(C)=CCCC(C)=CCCC(C)=CCCC(C)=CCCC(C)=CCCC(C)=CCCC(C)=CCNCC(O)c1ccccc1` (stereo not shown) [drawing 43], the inhibition in vivo at 50 mg/kg in the data set with vaccinia virus came out at 64.4%.

Regarding `CC(C)=CCCC(C)=CCCC(C)=CCCC(C)=CCCC(C)=CCCC(C)=CCCC(C)=CCCC(C)=CCCC(C)=CCCC(C)=CCNc1ccc(C(=O)O)cc1` [drawing 59], the LD50 in data set [2] turned out to be 27.7 mg/kg.

`CC(C)=CCCC(C)=CCCC(C)=CCCC(C)=CCCC(C)=CCCC(C)=CCCC(C)=CCCC(C)=CCCC(C)=CCCC(C)=CCNc1ccc(C(=O)O)c(O)c1` [drawing 60]: the LD50 in data set [2] came out at 45 mg/kg.

Consider `CC(C)=CCCC(C)=CCCC(C)=CCCC(C)=CCCC(C)=CCCC(C)=CCCC(C)=CCCC(C)=CCCC(C)=CCCC(C)=CCNCc1ccc([N+](=O)[O-])cc1` [drawing 61], for which the LD50 in data set [2] was more than 269 mg/kg.

Consider `CC(C)=CCCC(C)=CCCC(C)=CCCC(C)=CCCC(C)=CCCC(C)=CCCC(C)=CCCC(C)=CCCC(C)=CCCC(C)=CCNCc1cccc2ccccc12` [drawing 62], for which, in data set [2], the LD50 amounted to 207 mg/kg.

For `CC(C)=CCCC(C)=CCCC(C)=CCCC(C)=CCCC(C)=CCCC(C)=CCCC(C)=CCCC(C)=CCCC(C)=CCCC(C)=CCNCc1ccc(C)cc1` [drawing 63], the LD50 in data set [2] was determined as 123 mg/kg.

With `CC(C)=CCCC(C)=CCCC(C)=CCCC(C)=CCCC(C)=CCCC(C)=CCCC(C)=CCCC(C)=CCCC(C)=CCCC(C)=CCNCc1ccc(Cl)cc1` [drawing 64], in data set [2], the LD50 was 371 mg/kg.

On to `COc1ccc(CNCC=C(C)CCC=C(C)CCC=C(C)CCC=C(C)CCC=C(C)CCC=C(C)CCC=C(C)CCC=C(C)CCC=C(C)CCC=C(C)C)cc1OC` [drawing 65], for which the LD50 in data set [2] was determined as 56.8 mg/kg.

`CC(C)=CCCC(C)=CCCC(C)=CCCC(C)=CCCC(C)=CCCC(C)=CCCC(C)=CCCC(C)=CCCC(C)=CCCC(C)=CCNC(c1ccccc1)c1ccccc1` [drawing 66]: the LD50 in data set [2] is 1180 mg/kg.

As for `CC(C)=CCCC(C)=CCCC(C)=CCCC(C)=CCCC(C)=CCCC(C)=CCCC(C)=CCCC(C)=CCCC(C)=CCCC(C)=CCNCCc1ccc(N)cc1` [drawing 67], in data set [2], the LD50 was found to be 28 mg/kg.

`CC(C)=CCCC(C)=CCCC(C)=CCCC(C)=CCCC(C)=CCCC(C)=CCCC(C)=CCCC(C)=CCCC(C)=CCCC(C)=CCNc1ccc(C(=O)O)cc1` [drawing 71]: in data set [1], the “Human interferon 3H uridine-uptake inhibition rate %” value stood at 12.7%.

For the compound `CC(C)=CCCC(C)=CCCC(C)=CCCC(C)=CCCC(C)=CCCC(C)=CCCC(C)=CCCC(C)=CCCC(C)=CCCC(C)=CCNc1ccc(C(=O)O)c(O)c1` [drawing 72], the “Human interferon 3H uridine-uptake inhibition rate %” value in data set [1] stood at 39.8%.

Turning to `CC(C)=CCCC(C)=CCCC(C)=CCCC(C)=CCCC(C)=CCCC(C)=CCCC(C)=CCCC(C)=CCCC(C)=CCCC(C)=CCNCCCc1ccccc1` [drawing 73], the “Human interferon 3H uridine-uptake inhibition rate %” value in data set [1] is listed as 17.7%.

As for `CC(C)=CCCC(C)=CCCC(C)=CCCC(C)=CCCC(C)=CCCC(C)=CCCC(C)=CCCC(C)=CCCC(C)=CCCC(C)=CCNCc1ccc([N+](=O)[O-])cc1` [drawing 74], in data set [1], the “Human interferon 3H uridine-uptake inhibition rate %” value amounted to 23.6%.

In the case of `CC(C)=CCCC(C)=CCCC(C)=CCCC(C)=CCCC(C)=CCCC(C)=CCCC(C)=CCCC(C)=CCCC(C)=CCCC(C)=CCNCc1cccc2ccccc12` [drawing 75], the “Human interferon 3H uridine-uptake inhibition rate %” value in data set [1] was found to be 13.7%.

Consider `CC(C)=CCCC(C)=CCCC(C)=CCCC(C)=CCCC(C)=CCCC(C)=CCCC(C)=CCCC(C)=CCCC(C)=CCCC(C)=CCNCc1ccc(C)cc1` [drawing 76], for which, in data set [1], the “Human interferon 3H uridine-uptake inhibition rate %” value was 91.1%.

For `CC(C)=CCCC(C)=CCCC(C)=CCCC(C)=CCCC(C)=CCCC(C)=CCCC(C)=CCCC(C)=CCCC(C)=CCCC(C)=CCNCc1ccc(Cl)cc1` [drawing 77], the “Human interferon 3H uridine-uptake inhibition rate %” value in data set [1] turned out to be 75.7%.

In the case of `COc1ccc(CNCC=C(C)CCC=C(C)CCC=C(C)CCC=C(C)CCC=C(C)CCC=C(C)CCC=C(C)CCC=C(C)CCC=C(C)CCC=C(C)C)cc1OC` [drawing 78], the “Human interferon 3H uridine-uptake inhibition rate %” value in data set [1] is 77.8%.

Turning to `CC(C)=CCCC(C)=CCCC(C)=CCCC(C)=CCCC(C)=CCCC(C)=CCCC(C)=CCCC(C)=CCCC(C)=CCCC(C)=CCNCCCCc1ccccc1` [drawing 79], the “Human interferon 3H uridine-uptake inhibition rate %” value in data set [1] is on record as 67.2%.

`COc1ccc(CCNCC=C(C)CCC=C(C)CCC=C(C)CCC=C(C)CCC=C(C)CCC=C(C)CCC=C(C)CCC=C(C)CCC=C(C)CCC=C(C)C)cc1OC` [drawing 80]: the “Human interferon 3H uridine-uptake inhibition rate %” value in data set [1] is given as 32.5%.

As for `COc1cc(CNCC=C(C)CCC=C(C)CCC=C(C)CCC=C(C)CCC=C(C)CCC=C(C)CCC=C(C)CCC=C(C)CCC=C(C)CCC=C(C)C)ccc1O` [drawing 81], the “Human interferon 3H uridine-uptake inhibition rate %” value in data set [1] was 41.9%.

Take `COc1ccc(CNCC=C(C)CCC=C(C)CCC=C(C)CCC=C(C)CCC=C(C)CCC=C(C)CCC=C(C)CCC=C(C)CCC=C(C)CCC=C(C)C)cc1` [drawing 82]: the “Human interferon 3H uridine-uptake inhibition rate %” value in data set [1] is listed as 61.4%.

`COc1ccc(CNCC=C(C)CCC=C(C)CCC=C(C)CCC=C(C)CCC=C(C)CCC=C(C)CCC=C(C)CCC=C(C)CCC=C(C)C)cc1OC` [drawing 83]: the “Human interferon 3H uridine-uptake inhibition rate %” value in data set [1] worked out at 86.9%.

On to `CC(C)=CCCC(C)=CCCC(C)=CCCC(C)=CCCC(C)=CCCC(C)=CCCC(C)=CCCC(C)=CCCC(C)=CCCC(C)=CCNCc1cccc(CN)c1` [drawing 84], for which the “Human interferon 3H uridine-uptake inhibition rate %” value in data set [1] was 20.2%.

On to `COc1cccc(CNCC=C(C)CCC=C(C)CCC=C(C)CCC=C(C)CCC=C(C)CCC=C(C)CCC=C(C)CCC=C(C)CCC=C(C)CCC=C(C)C)c1OC` [drawing 85], for which the “Human interferon 3H uridine-uptake inhibition rate %” value in data set [1] came to 26.6%.

Turning to `CC(C)=CCCC(C)=CCCC(C)=CCCC(C)=CCCC(C)=CCCC(C)=CCCC(C)=CCCC(C)=CCCC(C)=CCCC(C)=CCNCC(O)c1ccccc1` (stereo not shown) [drawing 86], the “Human interferon 3H uridine-uptake inhibition rate %” value in data set [1] came to 37.6%.

As for `COc1ccc(CNCC=C(C)CCCC(C)CCCC(C)CCCC(C)C)cc1OC` (stereo not shown) [drawing 87], in data set [1], the “Human interferon 3H uridine-uptake inhibition rate %” value was found to be 1.8%.
